Like-named read-outs stand apart in the source and are kept apart here.
Columns and labels:
human GPR17 (hGPR17) [1] = target: T1, human GPR17 (hGPR17) (Homo sapiens, UniProt Q13304); test: calcium mobilization assay in CHO-GPR17 cells; assay type: cell-based; parameters: expressed in transfected cells; conditions: for % of response of compound (± SEM) CHO-GPR17 cells: normalised to response of 0.3 μM RA-II-150; for pEC50 (± SEM) CHO-GPR17: calcium mobilization, CHO-GPR17 cells
Text: In order to investigate potential differences in receptor signalling as a function of the cellular background, GPR17 was additionally expressed and analysed in a further cell system. Therefore, a recombinant Chinese hamster ovary (CHO) cell line stably expressing GPR17 was generated using the Flp-In™ T-Rex™ expression system. Here, expression of GPR17 was induced after adding doxycycline.
(§1) In order to detect the released calcium, cells are loaded with a cell membrane permeable dye, which is converted within the cell into its active form by the cleavage of ester bonds. The active form of the dye binds the released calcium. The fluorescence properties of the dye change after calcium binds to the dye. These changes can be detected automatically and represent the ligand-dependent receptor activation. Cells from two confluently grown (80 to 90%) 175 cm^2 cell culture flasks were needed for a calcium assay using the NOVOstar microplate reader (approximately 150,000 cells per well). Cells were harvested after removing the medium, washed once with PBS buffer and detached using a trypsin/EDTA solution. After incubation for 45 min at 37° C. and 5% CO2, the cells were pelleted by centrifugation (5 min, 200 g). […] The cells were washed twice with 1 ml of KHB buffer (three centrifugation steps, each for 15 sec at 2700 rpm) before being seeded in a 96-well microplate in a total volume of 180 μl. A 10-fold concentrated agonist solution (35 μl) was added to another 96-well microplate with a V-profile. Both plates were placed into the NOVOstar microplate reader and incubated there for 20 min. After incubation, the required gain was determined by the microplate so that the fluorescence background of the cells was between 38,000 and 42,000 fluorescence units. This background is an optimal range for starting the measurement, because it is in the middle of the reader's detection range. Normally, the background in each well of a microplate should be the same. The background was determined by performing a so-called validation. A validation is performed to detect irregularities in cell densities between different wells, fluorescence or absorption properties as well as unspecific antagonist effects. […] Afterwards, 20 μl of agonist were injected from the source plate to the measurement plate by the injector unit of the NOVOstar, and the increase in fluorescence was determined as a function of the calcium efflux resulting from receptor stimulation.

CHO-K1 cells = test: calcium mobilization assay, unspecific effects on native CHO-K1 cells; assay type: cell-based, Chinese hamster; conditions: normalised to response of 100 μM ATP
Text: as §1

Native 1321N1 cells = test: calcium mobilization assay, unspecific effects on native 1321N1 cells; assay type: cell-based, human; conditions: normalised to response of 100 μM carbachol
Text: as §1

human GPR17 (hGPR17) [2] = target: T1, human GPR17 (hGPR17); test: calcium mobilization assay in 1321N1-GPR17 cells; assay type: cell-based; parameters: expressed in transfected cells; host or cells: 1321N1 human astrocytoma cells, retroviral transfection with pLXSN-GPR17, G418 selection
Procedure: The sequence for the human GPR17 (short isoform) was subcloned into the vector pLXSN (Clontech Laboratories, CA 94043, USA), which can be used for retroviral transfection of the human astrocytoma cell line 1321N1. […] For the retroviral transfection of 1321N1 astrocytoma cells the packaging cell line GP+envAM12 was cultivated in HXM medium (50 ml of foetal calf serum (FCS), 5 ml of penicillin G/streptomycin solution (final concentration 100 U/ml penicillin, 100 μg/ml streptomycin), 1% ultra glutamine, 0.75 ml of hypoxanthine (10 mg/ml), 12.5 ml of xanthine (10 mg/ml), 1.25 ml of mycophenolic acid (10 mg/ml) and 2 ml of hygromycin B (50 mg/ml) were added to 500 ml DMEM). One day before transfection 1.5×10^6 cells were seeded and incubated overnight at 37° C., 5% CO2 and 95% humidity in a 25 cm^2 cell culture flask containing medium without antibiotics. For at least two hours before transfection the medium was exchanged for 6.25 ml DMEM medium without any additive. Two solutions were prepared for the transfection. The first solution consisted of 25 μl of Lipofectamine™ 2000 (final concentration 2%) and 600 μl of DMEM medium without any additives while the second solution was composed of 6.25 μg of pLXSN-GPR17 and 3.75 μg of pLXSN-VSV-G vector DNA. The second solution was filled up with DMEM medium without any additives. Solution one was incubated for 5 min at room temperature before both solutions were combined and incubated for 20 min, also at room temperature. Afterwards the sample was added to the packaging cell line and incubated for 12-15 h. The medium was then replaced with 3 ml of fresh medium containing 30 μl of a 500 mM sodium butyrate solution. The virus production was stimulated by sodium butyrate and took place by incubation for 48 h at 32° C. and 95% humidity. One day before infection 500,000 of 1321N1 astrocytoma cells were seeded in a 25 cm^2 cell culture flask. After 48 h of virus production, the retroviruses were harvested and sterilised by filtration through a filter with a pore size of […]. The host cell medium was replaced with the sterilized virus supernatant containing 6 μl of polybrene solution (4 mg/ml) and the infection of the host cells took place for further 48 h of incubation at 37° C., 95% humidity and 5% CO2. After incubation, the transfected cells were transferred to a 175 cm^2 cell culture flask and selected by adding medium containing G418. The efficiency of infection and stable transfection using this method was up to 95%.
PLC activation and IP3 accumulation result in a release of calcium from intracellular calcium stores, for example the endoplasmic reticulum. In order to detect the released calcium, cells are loaded with a cell membrane permeable dye, which is converted within the cell into its active form by the cleavage of ester bonds. The active form of the dye binds the released calcium. The fluorescence properties of the dye change after calcium binds to the dye. These changes can be detected automatically and represent the ligand-dependent receptor activation. Cells from two confluently grown (80 to 90%) 175 cm^2 cell culture flasks were needed for a calcium assay using the NOVOstar microplate reader (approximately 150,000 cells per well). Cells were harvested after removing the medium, washed once with PBS buffer and detached using a trypsin/EDTA solution. After incubation for 45 min at 37° C. and 5% CO2, the cells were pelleted by centrifugation (5 min, 200 g). Cells were resuspended in 994 μl of Krebs HEPES buffer (KHB; 118.6 mM NaCl, 4.7 mM KCl, 1.2 mM KH2PO4, 4.2 mM NaHCO3, 11.7 mM D-glucose, 10 mM HEPES (free acid), 1.3 mM MgSO4 and 1.2 mM CaCl2, pH 7.4) and loaded in the absence of light with fluorescent, namely Oregon Green 488 BAPTA-1/AM dye, by incubating them for one hour at 28° C. and 700 rpm in an Eppendorf Thermomixer in the presence of Pluronic F-127. Pluronic F-127 was supplemented so that the cells could better absorb the dye. […]

solubility in solvents = assay type: physicochemical
[3] = 30 μM compound, normalised to response of 30 μM RA-II-150
[4] = calcium mobilization, 1321N1-GPR17 cells

T1 sequence (Q13304 29-367): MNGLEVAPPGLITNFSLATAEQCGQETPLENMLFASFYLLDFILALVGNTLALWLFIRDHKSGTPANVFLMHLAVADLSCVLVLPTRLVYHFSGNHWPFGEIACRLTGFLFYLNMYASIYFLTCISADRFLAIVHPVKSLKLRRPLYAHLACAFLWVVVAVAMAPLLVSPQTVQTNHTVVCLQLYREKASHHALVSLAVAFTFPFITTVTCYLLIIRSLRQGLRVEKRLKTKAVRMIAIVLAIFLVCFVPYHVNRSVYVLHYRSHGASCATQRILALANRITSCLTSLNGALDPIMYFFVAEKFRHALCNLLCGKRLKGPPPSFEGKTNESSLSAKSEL

Structure (SMILES) | % of response of 30 μM compound (± SEM) 1321N1-GPR17 (human GPR17 (hGPR17) [2]; [3]) | pEC50 (± SEM) CHO-GPR17 (human GPR17 (hGPR17) [1]) | pEC50 (± SEM) 1321N1-GPR17 (human GPR17 (hGPR17) [2]; [4]) | % response of 30 μM compound (± SEM) Native 1321N1 cells (Native 1321N1 cells) | also measured
O=C(O)CCc1c(C(=O)O)n(CCC(=O)O)c2cc(Cl)cc(Cl)c12 | 80 (6) % |  |  | 1 (1)/1 (1) (1 μM compound) % | % of response of compound (± SEM) CHO-GPR17 cells (human GPR17 (hGPR17) [1]; 1 μM compound): 85 (5) %; % response of compound (± SEM) CHO-K1 cells (CHO-K1 cells; 1 μM compound): 1 (1)/1 (1) (1 μM compound) %
O=C(O)CCc1c(C(=O)O)[nH]c2cc(Br)cc(Br)c12 [3-(2-Carboxyethyl)-4,6-dibromo-1H-indole-2-carboxylic acid] |  | 7.87 (0.16) | 6.71 (0.01) | 0 (1) % | % of response of compound (± SEM) CHO-GPR17 cells (human GPR17 (hGPR17) [1]; 0.3 μM compound): 89 (2) %; solubility in methanol, ethanol and ethyl acetate (solubility in solvents; methanol, ethanol, ethyl acetate): well soluble; solubility in petrol ether, water, hexane (solubility in solvents; petrol ether, water, hexane): slightly soluble; % response of compound (± SEM) CHO-K1 cells (CHO-K1 cells; 0.3 μM compound): 0 (0) %; % of response of compound (± SEM) 1321N1-GPR17 (human GPR17 (hGPR17) [2]; 10 μM compound, normalised to response of 30 μM RA-II-150): 106 (1) %
Cc1cc(C)c2c(CCC(=O)O)c(C(=O)O)[nH]c2c1 [3-(2-Carboxyethyl)-4,6-dimethyl-1H-indole-2-carboxylic acid] | 76 (6) % | 6.47 (0.05) | 4.86 (0.10) | 1 (1)/1 (1) (1 μM compound) % | % of response of compound (± SEM) CHO-GPR17 cells (human GPR17 (hGPR17) [1]; 1 μM compound): 68 (2) %; % response of compound (± SEM) CHO-K1 cells (CHO-K1 cells; 1 μM compound): 1 (1)/1 (1) (1 μM compound) %
O=C(O)CCc1c(C(=O)O)[nH]c2cc(Br)ccc12 [3-(2-Carboxyethyl)-6-bromo-1H-indole-2-carboxylic acid] |  |  | 5.50 |  | 
O=C(O)CCc1c(C(=O)O)[nH]c2cc(Cl)ccc12 [3-(2-Carboxyethyl)-6-chloro-1H-indole-2-carboxylic acid] | 84 (6) % | 7.69 (0.10) | 5.43 (0.14) | 4 (3) % | % of response of compound (± SEM) CHO-GPR17 cells (human GPR17 (hGPR17) [1]; 1 μM compound): 94 (7) %; % response of compound (± SEM) CHO-K1 cells (CHO-K1 cells; 0.3 μM compound): 1 (2) %
O=C(O)CCc1c(C(=O)O)[nH]c2cc(-c3ccccc3)ccc12 [3-(2-Carboxyethyl)-6-phenyl-1H-indole-2-carboxylic acid] |  |  | 6.14 |  | 
O=C(O)CCc1c(C(=O)O)[nH]c2cc(Cl)cc(Cl)c12 [RA-II-150, 3-(2-carboxyethyl)-4,6-dichloro-1H-indole-2-carboxylic acid] |  | 6.09 (0.06)/ 8.20 (0.08) |  | 0 (3) % | % of response of compound (± SEM) CHO-GPR17 cells (human GPR17 (hGPR17) [1]; 0.3 μM compound): 100 (0)/100 (0) (0.3 μM compound) %; % response of compound (± SEM) CHO-K1 cells (CHO-K1 cells; 0.1 μM compound): 0 (1) %; % of response of 30 μM compound (± SEM) 1321N1-GPR17 (human GPR17 (hGPR17) [2]): 100 (0)/100 (0) (0.3 μM compound) %; pEC50 (± SEM) 1321N1-GPR17 (human GPR17 (hGPR17) [2]): 6.09 (0.06)/ 8.20 (0.08)

Further lines, with some results ahead:

% of response of 30 μM compound (± SEM) 1321N1-GPR17 (human GPR17 (hGPR17) [2]; [3]) | pEC50 (± SEM) CHO-GPR17 (human GPR17 (hGPR17) [1]) | pEC50 (± SEM) 1321N1-GPR17 (human GPR17 (hGPR17) [2]; [4]) | Structure (SMILES) | % response of 30 μM compound (± SEM) Native 1321N1 cells (Native 1321N1 cells) | also measured
77 (2) % | 6.79 (0.10) | 5.13 (0.13) | O=C(O)CCc1c(C(=O)O)[nH]c2cc(F)cc(F)c12 [3-(2-Carboxyethyl)-4,6-difluoro-1H-indole-2-carboxylic acid] | 2 (1) % | % of response of compound (± SEM) CHO-GPR17 cells (human GPR17 (hGPR17) [1]; 3 μM compound): 97 (5) %; % response of compound (± SEM) CHO-K1 cells (CHO-K1 cells; 3 μM compound): 1 (2) %
 |  | 5.32 | O=C(O)CCc1c(C(=O)O)[nH]c2cc(I)cc(I)c12 [3-(2-Carboxyethyl)-4,6-diiodo-1H-indole-2-carboxylic acid] |  | 
 |  | 5.52 | O=C(O)CCc1c(C(=O)O)[nH]c2cc(-c3ccccc3)cc(-c3ccccc3)c12 [3-(2-Carboxyethyl)-4,6-diphenyl-1H-indole-2-carboxylic acid] |  | 
 |  | 6.15 | O=C(O)CCc1c(C(=O)O)[nH]c2cc(I)ccc12 [3-(2-Carboxyethyl)-6-iodo-1H-indole-2-carboxylic acid] |  | 
